From paper doi:10.1101/2025.06.19.660642, “Discovery of orally bioavailable Zika and West Nile Virus antiviral compounds targeting the NS2B-NS3 protease” (bioRxiv, 2025)
Values after ≈ are worked out from the molar mass of the structure shown. Where two headings read alike, the source gives them in different places.

What was measured:
ZIKV NS2B-NS3 protease = biological target: T1, ZIKV NS2B-NS3 protease (Zika virus, UniProt A0A024B7W1); experiment: ZIKV NS2B-NS3 protease biochemical FRET assay; conditions: for Ligand efficiency (LE): Ligand efficiency = pKi / heavy atom count
T1 construct: directed at the co-expressed ZIKV NS2B-NS3 protease

[1] = Microsomal clearance, HLM; conditions: human, microsomes
ZIKV [2] = experiment: ZIKV antiviral assay (virus-induced cytopathy) in Vero E6 cells with P-gp inhibitor; format: cell-based; conditions: Zika virus; for EC50: Vero C1008, 168 h, read-out: ZIKV EC50
Description: (§1) Figure 5. (A) Further characterization of ASAP-0027808. Papp was determined in MDR1-MDCK cells. Antiviral assays were performed in Vero E6 cells in a 7-day infection using 0.5 uM CP100356 as a P-gp inhibitor (see Supporting Information for more details). (B) The compound was successfully crystallized with ZIKV NS2B-NS3. ASAP-0016806 and ASAP-0027808 both appear to interact with the same residues (catalytic triad His51/Asp75/Ser135 colored yellow, other key residues Tyr161, NS2B Ser81, and NS2B Asp83 colored green). (C) Dose-dependent suppression of ZIKV-induced cytopathy in VeroE6 cells (n=2); no changes to cell viability of uninfected cells treated with the inhibitor was observed. Cells were co-treated with 0.5 μM CP100356 (as P-gp inhibitor). TEXT PRINTED IN THE PICTURE: (A) ASAP-0027808: ZIKV NS2B-NS3 Ki (μM): 0.090; ZIKV EC50 / CC50 (μM): 4.6 / >50; WNV NS2B-NS3 Ki (μM): 2.9; MW (g/mol): 313; CLint,app, HLM (μL/min/mg): < 10; MDR1-MDCK Papp A→B, B→A (10^-6 cm/sec): 2.0 ,11.0; Kinetic solubility (pH 7.4, μM): 279; LogD: 0.9

MDR1-MDCK permeability = format: in vitro ADME; conditions: dog; for Papp A→B: MDCK-MDR1, A→B; for Papp B→A: MDCK-MDR1, B→A
Description: as §1

WNV NS2B-NS3 protease = biological target: T2, WNV NS2B-NS3 protease (West Nile virus, UniProt P06935); experiment: WNV NS2B-NS3 protease biochemical inhibition
T2 construct: some activity against the WNV NS2B-NS3 protease

Kinetic solubility = conditions: pH 7.4
urokinase = biological target: T3, urokinase (Homo sapiens, UniProt P00749); experiment: Eurofins human protease selectivity panel; format: biochemical; conditions: read-out: inhibitory activity against urokinase
T3 construct: Eurofins
From the text: Upon crystallization in the active site of ZIKV NS2B-NS3, we noted the compound participating with most of the same residues as ASAP-0016806 (Figure 5B): an aromatic interaction with Tyr161, a hydrogen-bonding interaction with Gly151, an aromatic interaction with His51, and an electrostatic interaction with Asp83 (with a possible additional hydrogen bonding interaction to Ser81).

[3] = Cytotoxicity in uninfected Vero E6 cells; format: cell-based; conditions: African green monkey
Description: as §1

Vero E6 cells = experiment: Cytotoxicity in uninfected Vero E6 cells; format: cell-based
Description: as §1

WNV = WNV antiviral assay in Vero cells with P-gp inhibitor; format: cell-based; conditions: West Nile virus, read-out: WNV EC50 (Vero cells + Pgpi)
[4] = Microsomal clearance, MLM; conditions: mouse, microsomes
[5] = Cytotoxicity in SH-SY5Y cells; conditions: human
ZIKV [6] = experiment: ZIKV antiviral assay in SH-SY5Y cells; format: cell-based; conditions: Zika virus
[7] = Murine in vivo pharmacokinetics and tolerability; set-up: species or system mice; conditions: mouse
From the text: Figure 8. […] (B) ASAP-0036543 was assigned the (S) configuration by crystallography and the compound assumed a similar binding mode to that observed with ASAP-0029000. (C) Murine in vivo pharmacokinetics for ASAP-0036543. […] TEXT PRINTED IN THE PICTURE: (A) ASAP-0036543: ZIKV Ki (μM): 0.0029; ZIKV EC50 / EC90 / CC50 (μM, SH-SY5Y cells): 0.48 / 0.75 / 38; ZIKV EC50 / EC90 / CC50 (μM, Vero cells + pgpi): 0.38 / 0.98 / >50; WNV Ki (μM): 0.058; WNV EC50 / CC50 (μM, Vero cells + Pgpi): 1.0 / >50; %F (150, 300, 600 mpk): 96 / 153 / 223; Vd,ss (L/kg): 7.9; CLp (mL/min/kg): 87; CLint,app, HLM, MLM (μL/min/mg): < 10, <10; MDR1-MDCK Papp A→B, B→A (10^-6 cm/sec): 1.2, 16; KSol (pH 7.4, μM): 389; LogD: 1.0
The compound had high kinetic solubility, low microsomal clearance, and acceptable permeability in an MDR1-MDCK cell line. Respectable antiviral potency against WNV in Vero cells was also noted, which had been hitherto difficult to achieve with the chemotype. […] ASAP-0036543 was then advanced to murine pharmacokinetic studies to assess its potential as an in vivo tool compound.[31]

[8] = Vero E6 cells, 0.5 uM CP100356 as P-gp inhibitor, read-out: CC50

T2 sequence (P06935 1424-1463): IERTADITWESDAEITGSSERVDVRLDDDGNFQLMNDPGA
T2 sequence (P06935 1502-1679): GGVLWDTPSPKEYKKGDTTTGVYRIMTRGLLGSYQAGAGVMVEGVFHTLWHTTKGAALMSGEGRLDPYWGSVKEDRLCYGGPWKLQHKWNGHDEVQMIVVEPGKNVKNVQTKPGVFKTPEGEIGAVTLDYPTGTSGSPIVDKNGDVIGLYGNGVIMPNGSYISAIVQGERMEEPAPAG
T1 sequence (A0A024B7W1 1503-1680): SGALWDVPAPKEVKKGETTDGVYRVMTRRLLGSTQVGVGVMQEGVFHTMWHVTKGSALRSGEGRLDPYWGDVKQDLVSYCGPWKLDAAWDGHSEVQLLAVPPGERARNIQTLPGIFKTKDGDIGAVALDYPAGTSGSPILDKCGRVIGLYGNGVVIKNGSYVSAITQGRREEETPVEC
T1 sequence (A0A024B7W1 1425-1464): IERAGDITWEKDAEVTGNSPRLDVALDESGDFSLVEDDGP

O=C(Nc1cc(Cl)cc(C(=O)NCCC2COCCN2)c1)OCc1ccccc1 (stereo not shown) [ASAP-0022490, O=C(NC1=CC(Cl)=CC(C(=O)NCC[C@H]2COCCN2)=C1)OCC1=CC=CC=C1 ¦&1:14¦]
Ki (ZIKV NS2B-NS3 protease; ZIKV NS2B-NS3 Ki (uM), library 1, supplement): > 89.3 µM

NCc1cccc(NC(=O)c2cc(Cl)cc3[nH]ncc23)c1 [ASAP-0023261]
Ligand efficiency (LE) (ZIKV NS2B-NS3 protease): 0.407 | Ki (ZIKV NS2B-NS3 protease; ZIKV NS2B-NS3 Ki): 0.796 µM

O=C(Nc1ccc2c(c1)CNC2)c1cc(Cl)cc2[nH]ncc12 [ASAP-0027808]
microsomal CLint [1]: < 10 µL/min/mg | EC50 (ZIKV [2]): 4600 nM | Papp A→B (MDR1-MDCK permeability): 2 ×10⁻⁶ cm/s | Papp B→A (MDR1-MDCK permeability): 11 ×10⁻⁶ cm/s | logD (LogD): 0.9 | Ki (WNV NS2B-NS3 protease): 2900 nM | Ligand efficiency (LE) (ZIKV NS2B-NS3 protease): 0.452 | Ki (ZIKV NS2B-NS3 protease; ZIKV NS2B-NS3 Ki): 0.09 µM | Kinetic solubility (Kinetic solubility): 279 µM | inhibition at 10 µM (urokinase): 21% | CC50 [3, 8]: > 50000 nM | cytotoxicity (Vero E6 cells; Vero E6 cells treated with a P-gp inhibitor, up to 50 μM): no apparent cytotoxicity

N#C[C@@H](Nc1ccc2c(c1)CNC2)c1cc(Cl)cc2[nH]ncc12 [ASAP-0028904]
Papp A→B (MDR1-MDCK permeability): 1.1 ×10⁻⁶ cm/s | logD (LogD): 0.9 | Ki (WNV NS2B-NS3 protease): 18000 nM | Ki (ZIKV NS2B-NS3 protease; ZIKV NS2B-NS3 Ki): 0.1 µM

OCC#C[C@@H](Nc1ccc2c(c1)CNC2)c1cc(Cl)cc2[nH]ncc12 [ASAP-0028990]
Papp A→B (MDR1-MDCK permeability): 0.59 ×10⁻⁶ cm/s | logD (LogD): 0.5 | Ki (WNV NS2B-NS3 protease): 21000 nM | Ki (ZIKV NS2B-NS3 protease; ZIKV NS2B-NS3 Ki): 0.99 µM

CC(C)NC(=O)[C@@H](Nc1ccc2c(c1)CNC2)c1cc(Cl)cc2[nH]ncc12 [ASAP-0029000]
Papp B→A (MDR1-MDCK permeability): 2.2 ×10⁻⁶ cm/s | logD (LogD): 0.5 | Ki (WNV NS2B-NS3 protease): 320 nM | Ki (ZIKV NS2B-NS3 protease; ZIKV NS2B-NS3 Ki): 0.077 µM

C=CC[C@@H](Nc1ccc2c(c1)CNC2)c1cc(Cl)cc2[nH]ncc12 [ASAP-0029049]
Ki (ZIKV NS2B-NS3 protease; ZIKV NS2B-NS3 Ki): 7.1 µM

Clc1cc(CNc2ccc3c(c2)CNC3)c2cn[nH]c2c1 [ASAP-0029525]
EC50 (ZIKV [2]): 17900 nM | Ki (WNV NS2B-NS3 protease): 43000 nM | Ki (ZIKV NS2B-NS3 protease; ZIKV NS2B-NS3 Ki): 2.9 µM | CC50 [3, 8]: 29800 nM

CC(C)NC(=O)[C@@H](Nc1ccc2c(c1)CNC2)c1cc(Cl)cc2[nH]ncc12 [ASAP-0029974]
EC50 (ZIKV [2]): 5700 nM | logD (LogD): 0.5 | Ki (WNV NS2B-NS3 protease): 360 nM | Ki (ZIKV NS2B-NS3 protease; ZIKV NS2B-NS3 Ki): 0.048 µM | CC50 [3, 8]: > 50000 nM

CC(C)NC(=O)[C@@H](Nc1ccc2c(c1)CN(C)C2)c1cc(Cl)cc2[nH]ncc12 [ASAP-0031156]
Ki (WNV NS2B-NS3 protease): 1600 nM | Ki (ZIKV NS2B-NS3 protease; ZIKV NS2B-NS3 Ki): 0.48 µM

Cc1cc(C(Nc2ccc3c(c2)CNC3)C(=O)NCC(F)F)cc(C(F)(F)F)c1 (stereo not shown) [ASAP-0031651]
EC50 (ZIKV [2]): 450 nM | Ki (ZIKV NS2B-NS3 protease; Ki, ZIKV NS2B-NS3): 0.0078 µM

Cc1cc([C@H](Nc2ccc3c(c2)CNC3)C(=O)NCC(F)F)cc(C(F)(F)F)c1 [ASAP-0036543]
EC50 (WNV): 1000 nM | microsomal CLint [4]: < 10 µL/min/mg | microsomal CLint [1]: < 10 µL/min/mg | EC50 (ZIKV [2]): 380 nM | EC90 (ZIKV [2]; Vero, read-out: ZIKV EC90 (Vero cells + pgpi)): 980 nM | Papp A→B (MDR1-MDCK permeability): 1.2 ×10⁻⁶ cm/s | Papp B→A (MDR1-MDCK permeability): 16 ×10⁻⁶ cm/s | logD (LogD): 1 | Ki (WNV NS2B-NS3 protease): 58 nM | Ki (ZIKV NS2B-NS3 protease; ZIKV NS2B-NS3 Ki): 0.0029 µM | CC50 [5]: 38000 nM | EC50 (ZIKV [6]; read-out: ZIKV EC50 (SH-SY5Y cells)): 480 nM | EC90 (ZIKV [6]; read-out: ZIKV EC90 (SH-SY5Y cells)): 750 nM | solubility kinetic (Kinetic solubility): 389 µM (≈ 161 µg/mL) | bioavailability ([7]; in vivo, 150 mg/kg, PO 150 mpk, read-out: %F): 96% | bioavailability ([7]; in vivo, 300 mg/kg, PO 300 mpk, read-out: %F): 153% | bioavailability ([7]; in vivo, 600 mg/kg, PO 600 mpk, read-out: %F (oral bioavailability)): 223% | clearance ([7]; in vivo, read-out: CLp): 87 mL/min/kg | Vd ([7]; in vivo, read-out: Vd,ss): 7.9 L/kg | tolerability ([7]; single PO doses of 150, 300 and 600 mg/kg): well-tolerated | CC50 ([3]; Vero cells + Pgpi, printed with WNV EC50, read-out: CC50 (WNV assay, Vero cells + Pgpi)): > 50000 nM | CC50 (Vero E6 cells; Vero E6 cells, 0.5 uM CP100356 as P-gp inhibitor): > 50000 nM

CC(C)(CO)NC(=O)c1cccc(Cl)c1 [Z68299550]
inhibition in biochemical assay (ZIKV NS2B-NS3 protease; @ 100 μM): n.i.

O=C(Nc1cc(Cl)cc(C(=O)Nc2ccc3c(c2)CNC3)c1)OCc1ccccc1 [ASAP-0020915]
Ligand efficiency (LE) (ZIKV NS2B-NS3 protease): 0.316 | ZIKV NS2B-NS3 pKi (ZIKV NS2B-NS3 protease; library 1, supplement): 6.77 | Ki (ZIKV NS2B-NS3 protease; library 1, supplement, read-out: ZIKV NS2B-NS3 Ki): 0.164 µM
